As a reminder, the Km is the concentration of substrate that gives half-maximal velocity.

This passage reports Km and kcat results from patent EP4818317A1, “POLYPEPTIDE FOR BIOSYNTHESIS OF 1,2-PROPANEDIOL AND USE THEREOF” (Tianjin University, priority 2023, dated 2025).

Data set [1] has as its system Lactiplantibacillus plantarum 1,5-anhydroglucitol-6-phosphate isomerase LpYbiW (Uniprot A0A807DR53), SEQ ID NO: 2. Description: Michaelis-Menten kinetics of LpYbiW, coupled with LpFsaA and EcGldA, NADH consumption at A340nm. In kind it is biochemical. Particulars: 100 nM activated LpYbiW, 20 mM Tris/HCl pH 7.5, 100 mM KCl, 5 µM LpFsaA, 5 µM EcGldA, 0.4 mM NADH, anaerobic glove box; substrate 1,5-anhydroglucitol-6-phosphate at varying concentrations. The procedure: Continuous-wave X-band EPR spectroscopy was used to characterize the LpYbiW glycyl radical. A reaction system (200 µL) containing 20 mM Tris/HCl, (pH 7.5), 100 mM KCl, 100 µM titanium(III) citrate, 1 mM SAM, 80 µM reconstituted LpYbiY, and 40 µM LpYbiW was incubated for 15 minutes at room temperature in a glove box. 10% glycerol was added, and a resulting mixture was loaded into an EPR tube (Wilmad Lab Glass, 734-LPV-7) with an outer diameter of 4 mm and a length of 8 inches. The tube was sealed with a rubber stopper, removed from the glove box, and frozen using liquid nitrogen before EPR analysis. The experimental spectrum of the glycyl radical was modeled using Bruker Xepr spin fitting to obtain g-values, hyperfine coupling constants, and line widths. Double integration of the simulated spectrum was used to measure the spin concentration. […]
The Michaelis-Menten kinetic parameters of LpYbiW were determined by coupling with LpFsaA and EcGldA. The reaction rate of LpYbiW was monitored by measuring NADH consumption at A340nm. The absorbance change of the reaction system at 340 nm was measured every 5 seconds using the cuvette mode of an ultra-micro UV-visible spectrophotometer (Nanophotometer) in a glove box (1 cm light path). […]

Data set [2] deals with T1, Escherichia coli strain K12 1,5-anhydromannitol-6-phosphate isomerase EcPflD (Uniprot P32674), SEQ ID NO: 98 (Escherichia coli, UniProt P32674).
T1 sequence (P32674 1-765): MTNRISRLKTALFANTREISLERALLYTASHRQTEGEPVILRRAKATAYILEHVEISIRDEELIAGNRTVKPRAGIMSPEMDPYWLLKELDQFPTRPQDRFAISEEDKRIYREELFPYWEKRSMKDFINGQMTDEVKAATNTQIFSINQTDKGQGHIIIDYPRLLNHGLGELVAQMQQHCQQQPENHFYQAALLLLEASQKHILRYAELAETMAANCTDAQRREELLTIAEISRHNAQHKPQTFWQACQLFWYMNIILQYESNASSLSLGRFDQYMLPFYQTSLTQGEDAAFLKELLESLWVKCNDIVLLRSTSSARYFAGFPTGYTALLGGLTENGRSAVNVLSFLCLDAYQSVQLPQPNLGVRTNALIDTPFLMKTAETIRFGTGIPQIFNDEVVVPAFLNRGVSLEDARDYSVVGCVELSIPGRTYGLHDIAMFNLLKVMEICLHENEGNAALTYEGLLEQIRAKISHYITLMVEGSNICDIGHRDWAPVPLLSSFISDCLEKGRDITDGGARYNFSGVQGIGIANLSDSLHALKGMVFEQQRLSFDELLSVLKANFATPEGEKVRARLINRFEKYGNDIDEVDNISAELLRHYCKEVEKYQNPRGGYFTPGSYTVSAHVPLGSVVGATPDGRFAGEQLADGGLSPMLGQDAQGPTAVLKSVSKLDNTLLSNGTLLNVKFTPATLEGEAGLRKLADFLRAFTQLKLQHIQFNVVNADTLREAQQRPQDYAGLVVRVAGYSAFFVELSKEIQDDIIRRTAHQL
Description: Michaelis-Menten kinetics of EcPflD, coupled with EcFsaB and EcGldA, decrease in A340nm. In kind it is biochemical. To be noted: 40 nM activated EcPflD, 20 mM Tris/HCl pH 7.5, 100 mM KCl, 2 µM EcFsaB, 2 µM EcGldA, 0.4 mM NADH, anaerobic glove box; substrate 1,5-AM-6P at various concentrations. The procedure: (§1) The EcPflD glycine radical was characterized using continuous-wave X-band electron paramagnetic resonance (EPR) spectroscopy. A reaction system (200 µL) containing 20 mM Tris/HCl, (pH 7.5), 100 mM KCl, 100 µM titanium(III) citrate, 1 mM SAM, 80 µM reconstituted EcPflC, and 40 µM EcPflD was incubated for 15 minutes at room temperature in a glove box. Glycerol (10%) was added, and a resulting mixture was transferred to an EPR tube with an outer diameter of 4 mm and a length of 8 inches (Wilmad Lab Glass, 734-LPV-7). The tube was sealed with a rubber stopper, removed from the glove box, and frozen in liquid nitrogen prior to EPR analysis. […]
(§2) A reaction mixture containing 20 mM Tris/HCl, (pH 7.5), 100 mM KCl, 10 mM 1,5-AM-6P, 40 nM activated EcPflD, 5 µM EcFsaB, 5 µM EcGldA, and 0.4 mM NADH was incubated in a 1 cm Eppendorf cuvette in a glove box at room temperature. Absorbance at 340 nm was monitored every 5 seconds using a cuvette mode of an ultra-micro UV-Vis spectrophotometer (Hangzhou Miu Instruments Co., Ltd.) inside the glove box. […]
(§3) The reaction system containing 20 mM Tris/HCl, (pH 7.5), 100 mM KCl, 40 nM activated EcPflD and 1,5-AM-6P with various substrate concentrations, 2 µM EcFsaB, 2 µM EcGldA, and 0.4 mM NADH was measured using a cuvette mode of an ultra-micro UV-Vis spectrophotometer (Hangzhou Miu Instruments Co., Ltd.) in a 1 cm Eppendorf cuvette inside a glove box. […]

Substrate in data set [3]: O=P(O)(O)OC[C@H]1OC[C@@H](O)[C@@H](O)[C@@H]1O
Described as above. In kind it is biochemical, Escherichia coli strain K12. To be noted: other: 40 nM activated EcPflD, 20 mM Tris/HCl pH 7.5, 100 mM KCl, 2 µM EcFsaB, 2 µM EcGldA, 0.4 mM NADH, anaerobic glove box, substrate 1,5-AM-6P at various concentrations. The protocol:
as §1, §2, §3

For the molecule `O=P(O)(O)OC[C@H]1OC[C@H](O)[C@@H](O)[C@@H]1O` [1,5-AG-6P, 1,5-anhydroglucitol-6-phosphate], in data set [1], the Km stood at 36.5 ± 6.66 mM and the kcat is recorded as 43.38 ± 2.96 s^-1/LpYbiW.

As for `O=P(O)(O)OC[C@H]1OC[C@@H](O)[C@@H](O)[C@@H]1O` [1,5-AM-6P, 1,5-anhydromannitol-6-phosphate], the kcat in data set [2] is recorded as 33.47 ± 0.79 s^-1/EcPflD.

B1: Escherichia coli strain K12 1,5-anhydromannitol-6-phosphate isomerase EcPflD (Uniprot P32674), SEQ ID NO: 98 (Escherichia coli K-12) (protein)
chain: MTNRISRLKTALFANTREISLERALLYTASHRQTEGEPVILRRAKATAYILEHVEISIRDEELIAGNRTVKPRAGIMSPEMDPYWLLKELDQFPTRPQDRFAISEEDKRIYREELFPYWEKRSMKDFINGQMTDEVKAATNTQIFSINQTDKGQGHIIIDYPRLLNHGLGELVAQMQQHCQQQPENHFYQAALLLLEASQKHILRYAELAETMAANCTDAQRREELLTIAEISRHNAQHKPQTFWQACQLFWYMNIILQYESNASSLSLGRFDQYMLPFYQTSLTQGEDAAFLKELLESLWVKCNDIVLLRSTSSARYFAGFPTGYTALLGGLTENGRSAVNVLSFLCLDAYQSVQLPQPNLGVRTNALIDTPFLMKTAETIRFGTGIPQIFNDEVVVPAFLNRGVSLEDARDYSVVGCVELSIPGRTYGLHDIAMFNLLKVMEICLHENEGNAALTYEGLLEQIRAKISHYITLMVEGSNICDIGHRDWAPVPLLSSFISDCLEKGRDITDGGARYNFSGVQGIGIANLSDSLHALKGMVFEQQRLSFDELLSVLKANFATPEGEKVRARLINRFEKYGNDIDEVDNISAELLRHYCKEVEKYQNPRGGYFTPGSYTVSAHVPLGSVVGATPDGRFAGEQLADGGLSPMLGQDAQGPTAVLKSVSKLDNTLLSNGTLLNVKFTPATLEGEAGLRKLADFLRAFTQLKLQHIQFNVVNADTLREAQQRPQDYAGLVVRVAGYSAFFVELSKEIQDDIIRRTAHQL
Regarding B1, the Km in data set [3] was found to be 1.33 ± 0.12 mM.
